Where a SMILES comes first, the peptide text is derived from it. [ ]: non-standard residue; d: D form. hPhe = N[C@@H](CCc1ccccc1)C(=O)O
Tests used:
[1] = molecular target: Delta-type opioid receptor (Rattus norvegicus, UniProt P33533); test: Displacement of [3H]DPDPE from delta opioid receptor in Wistar rat brain
Mu-type opioid receptor = Mu-type opioid receptor (Rattus norvegicus, UniProt P33535); test: Displacement of [3H]DAMGO from mu opioid receptor in Wistar rat brain
[2] = molecular target: Mu-type opioid receptor (Rattus norvegicus) (UniProt P33535); test: Decrease of maximum binding of [3H]DAMGO to mu opioid receptor in Wistar rat brain at 10000 nm; set-up: scale not given: the % may be the effect or the level left
Sequence of Mu-type opioid receptor (Rattus norvegicus) (P33535 whole entry): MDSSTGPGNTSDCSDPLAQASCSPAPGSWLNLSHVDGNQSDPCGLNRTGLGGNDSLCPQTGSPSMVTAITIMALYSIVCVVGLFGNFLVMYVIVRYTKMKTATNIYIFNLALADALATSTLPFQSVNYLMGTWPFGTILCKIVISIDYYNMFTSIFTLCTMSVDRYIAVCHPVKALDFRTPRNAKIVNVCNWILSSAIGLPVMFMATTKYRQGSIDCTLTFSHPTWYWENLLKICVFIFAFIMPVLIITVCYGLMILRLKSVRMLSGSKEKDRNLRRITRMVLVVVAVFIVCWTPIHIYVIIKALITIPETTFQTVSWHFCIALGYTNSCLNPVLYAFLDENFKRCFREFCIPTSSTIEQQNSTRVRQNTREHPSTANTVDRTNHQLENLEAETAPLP

Mus musculus [3] = test: Antinociceptive activity in mouse at 4 ul, icv by hot plate test assessed as area under %MPE - time curve after 15 mins; type: functional
[4] = Half life in mouse brain at 10 ul; type: ADME, organism-based
Mus musculus [5] = test: Antinociceptive activity in mouse at 4ul, icv by hot plate test assessed as area under %MPE - time curve after 30 mins; type: functional
Mus musculus [6] = test: Antinociceptive activity in mouse at 4ul, icv by hot plate test assessed as area under %MPE - time curve after 45 mins; type: functional

Sequence of Delta-type opioid receptor (P33533 whole entry): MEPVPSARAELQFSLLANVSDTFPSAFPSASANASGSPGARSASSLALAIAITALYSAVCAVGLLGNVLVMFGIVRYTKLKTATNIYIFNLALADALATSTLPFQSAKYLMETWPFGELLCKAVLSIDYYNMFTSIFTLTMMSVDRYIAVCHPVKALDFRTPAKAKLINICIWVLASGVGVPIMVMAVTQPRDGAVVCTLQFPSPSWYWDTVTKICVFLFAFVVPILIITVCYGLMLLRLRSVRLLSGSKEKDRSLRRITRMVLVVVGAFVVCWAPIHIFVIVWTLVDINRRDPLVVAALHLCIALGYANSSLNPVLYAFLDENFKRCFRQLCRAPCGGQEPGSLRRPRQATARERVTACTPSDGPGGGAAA
Sequence of Mu-type opioid receptor (P33535 whole entry): as the sequence (P33535 whole entry) above

SMILES	Ki [1] [nM]	Ki (Mu-type opioid receptor) [nM]	Activity [2] [%]	Activity (Mus musculus [3]) [%]	half-life [4] [min]	Activity (Mus musculus [5]) [%]	Activity (Mus musculus [6]) [%]
NC(=O)[C@H](NC(=O)[C@H](Cc1ccccc1)NC(=O)[C@@H]1CCCN1C(=O)[C@@H](N)Cc1ccc(O)cc1)c1ccccc1	> 10000	216					
NC(=O)[C@@H]1CCCN1C(=O)[C@H](CCc1ccccc1)NC(=O)[C@@H]1CCCN1C(=O)[C@@H](N)Cc1ccc(O)cc1 (H-YP[hPhe]P-NH2)	> 10000	586					
NC(=O)[C@@H]1CCCN1C(=O)[C@H](Cc1ccccc1)NC(=O)[C@@H]1CCCN1C(=O)[C@@H](N)Cc1ccc(O)cc1 [MORPHICEPTIN] (H-YPFP-NH2)	> 10000	135					
NC(=O)[C@H](CCc1ccccc1)NC(=O)[C@H](Cc1ccccc1)NC(=O)[C@@H]1CCCN1C(=O)[C@@H](N)Cc1ccc(O)cc1	> 10000	74.5					
NC(=O)[C@@H]1CCCN1C(=O)[C@H](NC(=O)[C@@H]1CCCN1C(=O)[C@@H](N)Cc1ccc(O)cc1)c1ccccc1	> 10000		24.5				
NC(=O)[C@H](Cc1ccccc1)NC(=O)[C@H](Cc1ccccc1)NC(=O)[C@@H]1CCCN1C(=O)[C@@H](N)Cc1ccc(O)cc1 [ENDOMORPHIN 2]				40.1	19.7	34.8	
NC(=O)[C@@H]1CCCN1C(=O)[C@@H](NC(=O)[C@@H]1CCCN1C(=O)[C@@H](N)Cc1ccc(O)cc1)c1ccccc1	> 10000						
NC(=O)[C@H](Cc1ccccc1)NC(=O)[C@H](CCc1ccccc1)NC(=O)[C@@H]1CCCN1C(=O)[C@@H](N)Cc1ccc(O)cc1	> 10000	28.4		67.5	32.5	50	38.2
NC(=O)[C@H](Cc1ccccc1)NC(=O)[C@@H](NC(=O)[C@@H]1CCCN1C(=O)[C@@H](N)Cc1ccc(O)cc1)c1ccccc1	> 10000	268					
NC(=O)[C@H](Cc1ccccc1)NC(=O)[C@H](NC(=O)[C@@H]1CCCN1C(=O)[C@@H](N)Cc1ccc(O)cc1)c1ccccc1	2100	1350					
NC(=O)[C@@H](NC(=O)[C@H](Cc1ccccc1)NC(=O)[C@@H]1CCCN1C(=O)[C@@H](N)Cc1ccc(O)cc1)c1ccccc1	> 10000	26.9		54.2	24.1	42.2	35.5
